Where two headings read alike, the source gives them in different places.
Tests used:
HIV-1 protease = HIV-1 protease (Human immunodeficiency virus type 1 group M subtype B, UniProt P04585); experiment: HIV protease assay (Ki); format: biochemical; conditions: for HIV-1 protease % inhibition: Table 1 Ki column
Text: (§1) This example illustrates the HIV-1 protease inhibition activity (Ki), HIV-1 antiviral data (EC50), and the toxicity against normal cells (IC50), for particular compounds of formula (I). The HIV protease assay was done according to the protocol described in Kageyama et al, Antimicrob. Agents Chemother., 37, 272 (1993). The HIV antiviral assay was done according to the protocol described in Weislow et al., J. National Cancer Inst. 81, 577 (1989).
(§2) The HIV protease assay was done according to the protocol described in Example 35. The plasmepsin II assay was done according to the protocol used in Silva et al., Proc. Nat. Acad. Sci. USA, 93, pp. 10034–10039, September 1996 (Biochemstry). The cathepsin D assay was done according to the protocol described in Gulnik et al., FEBS Letters, 413, 379–384 (1997). The compounds illustrated in Table 2 are of the general formula (II), as described in Example 35.

HIV-1 = experiment: HIV antiviral assay (EC50); format: cell-based; conditions: Table 1
Text: The HIV protease assay was done according to the protocol described in Kageyama et al, Antimicrob. Agents Chemother., 37, 272 (1993). The HIV antiviral assay was done according to the protocol described in Weislow et al., J. National Cancer Inst. 81, 577 (1989).

normal cells = experiment: toxicity against normal cells (IC50); format: cell-based; conditions: Table 1
Text: as §1

cathepsin D = cathepsin D (Homo sapiens, UniProt P07339); experiment: cathepsin D assay (Ki); format: biochemical; conditions: Table 2; read-out: Cath D Ki
cathepsin D, sequence (P07339 65-412): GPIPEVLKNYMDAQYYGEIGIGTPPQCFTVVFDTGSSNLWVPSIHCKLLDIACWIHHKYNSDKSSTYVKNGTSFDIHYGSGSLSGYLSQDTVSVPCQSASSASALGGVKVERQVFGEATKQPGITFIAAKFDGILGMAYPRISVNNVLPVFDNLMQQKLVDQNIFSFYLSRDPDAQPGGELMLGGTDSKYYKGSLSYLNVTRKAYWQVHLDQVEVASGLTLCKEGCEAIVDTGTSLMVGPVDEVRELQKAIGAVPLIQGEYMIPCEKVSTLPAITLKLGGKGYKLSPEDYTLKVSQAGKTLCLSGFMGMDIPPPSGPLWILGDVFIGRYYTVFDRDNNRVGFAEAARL
Text: as §2

plasmepsin II = plasmepsin II (Plasmodium falciparum, UniProt P46925); experiment: biochemical; format: biochemical; conditions: Table 2; read-out: Pls II Ki
plasmepsin II, sequence (P46925 125-453): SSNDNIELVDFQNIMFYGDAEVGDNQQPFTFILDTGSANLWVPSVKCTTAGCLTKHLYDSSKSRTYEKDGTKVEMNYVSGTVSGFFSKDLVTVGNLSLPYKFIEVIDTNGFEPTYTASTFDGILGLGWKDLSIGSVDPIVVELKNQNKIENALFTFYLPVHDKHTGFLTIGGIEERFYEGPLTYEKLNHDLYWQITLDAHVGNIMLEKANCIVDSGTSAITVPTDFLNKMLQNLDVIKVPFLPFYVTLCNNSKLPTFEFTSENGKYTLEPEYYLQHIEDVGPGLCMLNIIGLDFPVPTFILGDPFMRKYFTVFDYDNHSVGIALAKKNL
Text: as §2

[1] = Table 1, in nM, read-out: HIV-1 Ki

| SMILES | IC50 (normal cells) [nM] | EC50 (HIV-1) [nM] | Ki (HIV-1 protease; Table 1, read-out: HIV-1 Ki) [nM] | further results |
| --- | --- | --- | --- | --- |
| Cc1cccc(C)c1OCC(=O)N[C@@H](CC(C)C)C[C@H](O)[C@H](Cc1ccccc1)NC(=O)c1cccc(O)c1C [(42), (2S,3S,5S)-5-[N-[2-(2,6-dimethylphenoxy)acetyl]amino]-2-[N-(3-hydroxy-2-methylbenzoyl)amino]-3-hydroxy-7-methyl-1-phenyloctane] | > 100000 |  |  | Ki (HIV-1 protease): 0.311 nM; EC50 (HIV-1; Human immunodeficiency virus 1): 750 nM |
| CC(C)C[C@@H](C[C@H](O)[C@H](Cc1ccccc1)NC(=O)[C@H](C)NC(=O)OCc1ccccc1)NC(=O)c1cccc(O)c1 [(61)] |  | > 10000 |  | Ki (HIV-1 protease; [1]): 2 nM |
| CC(C)C[C@@H](C[C@H](O)[C@H](Cc1ccccc1)NC(=O)N1CCOCC1)NC(=O)[C@H](C(C)C)N1CCCNC1=O [(36)] | > 100000 | 2000 | 0.571 |  |
| Cc1cccc(C)c1OCC(=O)N[C@@H](Cc1ccccc1)[C@@H](O)C[C@H](CC(C)C)NC(=O)[C@H](C)NC(=O)OCc1ccccc1 [(56), (2S,3S,5S)-5-[N-[N′-(benzyloxycarbonyl)alaninyl]amino]-2-[N-[2-(2,6-dimethylphenoxy)acetyl]amino]-3-hydroxy-7-methyl-1-phenyloctane] | > 100000 | 1000 | 0.195 |  |
| Cc1cccc(C)c1OCC(=O)N[C@@H](Cc1ccccc1)[C@@H](O)C[C@H](CC(C)C)NC(=O)[C@@H](N)C(C)C [(49)] | > 100000 | 8000 |  | Ki (HIV-1 protease; [1]): 4 nM |
| Cc1c(O)cccc1C(=O)N[C@@H](Cc1ccccc1)[C@@H](O)C[C@H](CC(C)C)NC(=O)[C@H](C(C)C)N1CCCNC1=O [(37), (2S,3S,5S)-2-[N-(3-hydroxy-2-methylbenzoyl)amino]-5-[N-[[3-methyl-2S-(2-oxo-tetrahydropyrimidin-1-yl)]butyryl]amino]-3-hydroxy-7-methyl-1-phenyloctane] | > 10000 | 200 | 0.104 ± 0.01 |  |
| Cc1cccc(C)c1OCC(=O)N[C@@H](Cc1ccccc1)[C@@H](O)C[C@H](CC(C)C)NC(=O)CC(C)C [(55)] | > 100000 | 10000 |  | Ki (HIV-1 protease; [1]): 1.5 nM |
| CC(C)C[C@@H](C[C@H](O)[C@H](Cc1ccccc1)NC(=O)OCc1ccccc1)NC(=O)[C@@H](C(C)C)N1CCCNC1=O [(33)] |  |  |  | HIV-1 protease % inhibition (HIV-1 protease; @0.5 μM): 38%; HIV-1 protease % inhibition (HIV-1 protease; @1 μM): 65% |
| Cc1cccc(C)c1OCC(=O)N[C@@H](Cc1ccccc1)[C@@H](O)C[C@H](CC(C)C)NC(=O)OC(C)(C)C [(15), (2S,3S,5S)-5-[N-tert-butyloxycarbonylamino]-2-[N-[2-(2,6-dimethylphenoxy)acetyl]amino]-3-hydroxy-7-methyl-1-phenyloctane] |  |  |  | Ki (HIV-1 protease): 0.009 nM; Ki (HIV-1 protease; read-out: HIV-1 Ki, Table 2): 0.009 nM; Ki (cathepsin D): 6.1 nM; Ki (plasmepsin II): 210 nM |
| CC(C)C[C@@H](C[C@H](O)[C@H](Cc1ccccc1)NC(=O)[C@H](Cc1ccccc1)NC(=O)OCc1ccccc1)NC(=O)c1cccc(O)c1 [(67)] |  |  |  | HIV-1 EC50 (μM) (HIV-1): not active; Ki (plasmepsin II): 17 nM |
| Cc1cccc(C)c1OCC(=O)N[C@@H](Cc1ccccc1)[C@@H](O)C[C@H](CC(C)C)NC(=O)[C@@H](NS(C)(=O)=O)C(C)C [(51), (2S,3S,5S)-2-[N-[2-(2,6-dimethylphenoxy)acetyl]amino]-5-[N-[[N′-(methylsulfonyl)]valinyl]amino]-3-hydroxy-7-methyl-1-phenyloctane] | > 100000 | 700 | 0.034 |  |
| CC(C)C[C@@H](C[C@H](O)[C@H](Cc1ccccc1)NC(=O)OCc1ccccc1)NC(=O)[C@H](C(C)C)N1CCCNC1=O [(18)] | > 100000 | 600 | 0.065 ± 0.016 |  |
| Cc1cccc(C)c1OCC(=O)N[C@@H](Cc1ccccc1)[C@@H](O)C[C@H](CC(C)C)NC(=O)OCc1cncs1 [(57), (2S,3S,5S)-2-[N-[2-(2,6-dimethylphenoxy)acetyl]amino]-5-[N-[(thiazol-5-yl-methoxy)carbonyl]amino]-3-hydroxy-7-methyl-1-phenyloctane] | 10000 |  |  | Ki (HIV-1 protease): 0.094 nM; EC50 (HIV-1; Human immunodeficiency virus 1): 1000 nM |
| Cc1cccc(C)c1OCC(=O)N[C@@H](Cc1ccccc1)[C@@H](O)C[C@H](CC(C)C)NC(=O)[C@H](CC(N)=O)NC(=O)c1ccc2ccccc2n1 [(65)] |  |  | 0.0382 |  |
| COc1ccc(S(=O)(=O)N[C@H](C(=O)N[C@@H](CC(C)C)C[C@H](O)[C@H](Cc2ccccc2)NC(=O)COc2c(C)cccc2C)C(C)C)cc1 [(54)] | 84000 | 200 | 0.0068 |  |
| CC(=O)N[C@H](C(=O)N[C@@H](CC(C)C)C[C@H](O)[C@H](Cc1ccccc1)NC(=O)COc1c(C)cccc1C)C(C)C [(50)] | > 100000 | 300 | 0.014 |  |
| Cc1cccc(C)c1OCC(=O)N[C@@H](CC(C)C)C[C@H](O)[C@H](Cc1ccccc1)NC(=O)O[C@H]1CCOC1 [(41), (2S,3S,5S)-5-[N-[2-(2,6-dimethylphenoxy)acetyl]amino]-2-[N-(3S-terahydrofuranyloxycarbonyl]amino]-3-hydroxy-7-methyl-1-phenyloctane] | > 100000 | > 1000 | 0.222 |  |
| CC(C)CC(CC(O)C(Cc1ccccc1)NC(=O)C(C(C)C)N1CCCNC1=O)NC(=O)OC(C)(C)C (stereo not drawn) [(44)] |  |  | 1.49 | HIV-1 EC50 (μM) (HIV-1): in-active |
| CC(C)C[C@@H](C[C@H](O)[C@H](Cc1ccccc1)NC(=O)CNC(=O)OCc1ccccc1)NC(=O)c1cccc(O)c1 [(59)] |  | > 10000 |  | Ki (HIV-1 protease; [1]): 108 nM |
| Cc1cccc(C)c1OCC(=O)N[C@@H](Cc1ccccc1)[C@@H](O)C[C@H](CC(C)C)NC(=O)C1CCN(C(=O)OCc2ccccc2)CC1 [(48)] |  |  |  | Ki (HIV-1 protease; [1]): 113 nM |
| Cc1cccc(C)c1OCC(=O)N[C@@H](Cc1ccccc1)[C@@H](O)C[C@H](CC(C)C)NC(=O)c1cccc(O)c1 [(58)] | 10000 | 2000 |  | Ki (HIV-1 protease; [1]): 1.2 nM |
| Cc1cccc(C)c1OCC(=O)N[C@@H](CC(C)C)C[C@H](O)[C@H](Cc1ccccc1)NC(=O)OCc1ccccc1 [(40), (2S,3S,5S)-2-[N-(benzyloxycarbonyl)amino]-5-[N-[2-(2,6-dimethylphenoxy)acetyl]amino]-3-hydroxy-7-methyl-1-phenyloctane] |  |  | 0.197 | HIV-1 EC50 (μM) (HIV-1): inactive |
| CC(C)(C)OC(=O)N[C@@H](Cc1ccccc1)C[C@H](O)[C@H](Cc1ccccc1)NC(=O)OCc1ccccc1 [(53), reference compound] | > 100000 | > 10000 |  | Ki (HIV-1 protease; [1]): 1 nM |
| CC[C@H](C)[C@H](NC(=O)OCc1ccccc1)C(=O)N[C@@H](Cc1ccccc1)[C@@H](O)C[C@H](CC(C)C)NC(=O)c1cccc(O)c1 [(62)] | > 10000 | 1400 | 0.157 | Ki (HIV-1 protease; Table 2, read-out: HIV-1 Ki): 0.157 nM; Ki (plasmepsin II): 1.2 nM |
| Cc1cccc(C)c1OCC(=O)NC(Cc1ccccc1)C(O)CC(CC(C)C)NC(=O)C(C(C)C)N1CCCN(C)C1=O (stereo not drawn) [(68)] | 5000 |  |  |  |
| CC(C)C[C@@H](C[C@H](O)[C@H](Cc1ccccc1)NC(=O)[C@@H](NC(=O)OCc1ccccc1)C(C)C)NC(=O)c1cccc(O)c1 [Compound (60)] | > 10000 | 910 | 0.198 | Ki (HIV-1 protease; Table 2, read-out: HIV-1 Ki): 0.198 nM; Ki (plasmepsin II): 2.4 nM |
| COc1ccc(C(=O)N[C@H](C(=O)N[C@@H](CC(C)C)C[C@H](O)[C@H](Cc2ccccc2)NC(=O)COc2c(C)cccc2C)C(C)C)cc1 [(52), (2S,3S,5S)-2-[N-[2-(2,6.-dimethylphenoxy)acetyl]amino]-5-[N-[[N′-(p-methoxyphenylcarbonyl)]valinyl]amino]-3-hydroxy-7-methyl-1-phenyloctane] | > 93000 | 200 | 0.03 |  |
| Cc1cccc(C)c1OCC(=O)N[C@@H](Cc1ccccc1)[C@@H](O)C[C@H](CC(C)C)NC(=O)C1CCCN(C(=O)OCc2ccccc2)C1 (stereo partly drawn) [(47)] |  |  | 1.5 ± 0.066 |  |

Reference: US7132420B2, “Aspartic protease inhibitors” (The United States of America as represented by the …, priority 1999, dated 2006)
